According to patent US10314308B2, “Microbiocidal benzoxaboroles” (SYNGENTA PARTICIPATIONS AG, priority 2015, dated 2019):

Key:
Sclerotinia Sclerotiorum = experiment: Sclerotinia sclerotiorum / liquid culture (cottony rot); type: cell-based; settings: PDB potato dextrose broth, 24° C., 3-4 days after application, read-out: disease control (inhibition of growth, visually)
Summary of the method: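 Growth inhibition was read by eye 3-4 days post-application at 24° C. Compounds (DMSO solution) were combined with potato dextrose broth seeded with mycelia fragments from a newly grown liquid culture.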

[1] = tested on: Monographella Nivalis(Microdochium Nivale); experiment: Monographella nivalis (Microdochium nivale) / liquid culture (foot rot cereals); type: cell-based; settings: PDB potato dextrose broth, 24° C., 4-5 days after application, read-out: disease control (inhibition of growth, photometrically)
Summary of the method: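 Growth inhibition measured photometrically after 4-5 days at 24° C. Test compound in DMSO was combined with nutrient broth (PDB) carrying conidia taken directly from cryogenic storage.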

Gaeumannomyces Graminis = experiment: Gaeumannomyces graminis / liquid culture (take-all of cereals); type: cell-based; settings: PDB potato dextrose broth, 24° C., 4-5 days after application, read-out: disease control (inhibition of growth, photometrically)
Summary of the method: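 Liquid-culture growth assay: compound delivered as DMSO solution, then fungal inoculum in potato dextrose broth added. Photometric read of growth inhibition after 4-5 days at 24° C.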

Fusarium Culmorum = experiment: microbe, parasite or virus in culture; type: cell-based; settings: read-out: disease control (inhibition of growth, photometrically)
Phytophthora Infestans = experiment: whole plant or invertebrate; type: in vivo; settings: in Solanum lycopersicum, foliar, read-out: disease control
Plasmopara Viticola = experiment: whole plant or invertebrate; type: in vivo; settings: foliar, read-out: disease control
[2] = tested on: Glomerella Lagenarium(Colletotrichum Ladenarium); experiment: Glomerella lagenarium (Colletotrichum lagenarium) / liquid culture (anthracnose); type: cell-based; settings: PDB potato dextrose broth, 24° C., 3-4 days after application, read-out: disease control (inhibition of growth, photometrically)
Summary of the method: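 Compound dissolved in DMSO was combined with potato dextrose broth carrying conidia taken directly from cryogenic storage. Photometric growth inhibition readings were taken after 3–4 days of incubation at 24 °C.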

[3] = tested on: Thanatephorus Cucumeris(Rhizoctonia Solani); experiment: Thanatephorus cucumeris (Rhizoctonia solani) / liquid culture (foot rot, damping-off); type: cell-based; settings: PDB potato dextrose broth, 24° C., 3-4 days after application, read-out: disease control (inhibition of growth, photometrically)
Procedure: 16 Thanatephorus Cucumeris(Rhizoctonia Solani)/Liquid Culture (Foot Rot, Damping-Off) Mycelia fragments of a newly grown liquid culture of the fungus were directly mixed into nutrient broth (PDB potato dextrose broth). After placing a DMSO solution of the test compounds into a 96-well microtiter plate at an application rate of 200 ppm, the nutrient broth containing the fungal material was added. The test plates were incubated at 24° C. and the inhibition of growth was determined photometrically 3-4 days after application.

[4] = tested on: Mycosphaerella Graminicola(Septoria Tritici); experiment: Mycosphaerella graminicola (Septoria tritici) / liquid culture (Septoria blotch); type: cell-based; settings: Zymoseptoria tritici, PDB potato dextrose broth, 24° C., 4-5 days after application, read-out: disease control (inhibition of growth, photometrically)
Summary of the method: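 Growth inhibition measured by photometry 4-5 days post-application, at 24 °C, in liquid culture of spores taken straight from cryogenic storage into potato dextrose broth, with test compound supplied in DMSO.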

Pythium Ultimum = experiment: Pythium ultimum / liquid culture (seedling damping off); type: cell-based; settings: Globisporangium ultimum, potato dextrose broth, 24° C., 2-3 days after application, read-out: disease control (inhibition of growth, photometrically)
[5] = tested on: Mycosphaerella Arachidis(Cercospora Arachidicola); experiment: Mycosphaerella arachidis (Cercospora arachidicola) / liquid culture (early leaf spot); type: cell-based; settings: PDB potato dextrose broth, 24° C., 4-5 days after application, read-out: disease control (inhibition of growth, photometrically)
Summary of the method: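 Growth inhibition was read photometrically 4-5 days post-application, following incubation at 24 °C. Test compounds in DMSO were combined with fungal spores from cryogenic storage suspended in potato dextrose broth.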

[6] = tested on: Phaeosphaeria Nodorum (Septoria Nodorum); experiment: Phaeosphaeria nodorum (Septoria nodorum) / wheat / leaf disc preventative (glume blotch); type: in vivo; settings: Parastagonospora nodorum, foliar, wheat leaf segments cv Kanzler, inoculated 2 days after application, assessed 5-7 days after application, read-out: disease control
Procedure: 5 Phaeosphaeria Nodorum (Septoria Nodorum)/Wheat/Leaf Disc Preventative (Glume Blotch) Wheat leaf segments cv Kanzler were placed on agar in a 24-well plate and sprayed with formulated test compound diluted in water. The leaf disks were inoculated with a spore suspension of the fungus 2 days after application. The inoculated test leaf disks were incubated at 20° C. and 75% relative humidity under a light regime of 12/12 h (light/dark) in a climate cabinet and the activity of a compound was assessed as percent disease control compared to untreated when an appropriate level of disease damage appears in untreated check leaf disks (5-7 days after application).

[7] = tested on: Puccinia Recondita f. sp. Tritici; experiment: Puccinia recondita f. sp. tritici / wheat / leaf disc preventative (brown rust); type: in vivo; settings: foliar, wheat leaf segments cv Kanzler, inoculated 1 day after application, assessed 7-9 days after application, read-out: disease control
Procedure: 3 Puccinia Recondita f. sp. Tritici/Wheat/Leaf Disc Preventative (Brown Rust) Wheat leaf segments cultivated variety (cv) Kanzler were placed on agar in 24-well plates and sprayed with formulated test compound diluted in water. The leaf disks were inoculated with a spore suspension of the fungus 1 day after application. The inoculated leaf segments were incubated at 19° C. and 75% relative humidity under a light regime of 12/12 h (light/dark) in a climate cabinet and the activity of a compound was assessed as percent disease control compared to untreated when an appropriate level of disease damage appears in untreated check leaf segments (7-9 days after application).

[8] = tested on: Botryotinia Fuckeliana(Botrytis Cinerea); experiment: Botryotinia fuckeliana (Botrytis cinerea) / liquid culture (gray mould); type: cell-based; settings: Vogels broth, 24° C., 3-4 days after application, read-out: disease control (inhibition of growth, photometrically)
Procedure: 9 Botryotinia Fuckeliana(Botrytis Cinerea)/Liquid Culture (Gray Mould) Conidia of the fungus from cryogenic storage were directly mixed into nutrient broth (Vogels broth). After placing a DMSO solution of test compound into a 96-well microtiter plate, the nutrient broth containing the fungal spores was added. The test plates were incubated at 24° C. and the inhibition of growth was determined photometrically 3-4 days after application.

SMILES	inhibition at 20 ppm (Sclerotinia Sclerotiorum)	inhibition at 20 ppm [1]	inhibition at 20 ppm (Gaeumannomyces Graminis)	inhibition at 20 ppm (Fusarium Culmorum)	pest or weed control at 200 ppm (Phytophthora Infestans)	pest or weed control at 200 ppm (Plasmopara Viticola)	inhibition at 20 ppm [2]	inhibition at 20 ppm [3]	inhibition at 20 ppm [4]	inhibition at 20 ppm (Pythium Ultimum)	inhibition at 20 ppm [5]	melting point	pest or weed control at 200 ppm [6]	pest or weed control at 200 ppm [7]	inhibition at 20 ppm [8]
Cc1csc(-c2cc3c(cc2Cl)COB3O)n1 [Compound 15]	≥ 80%	≥ 80%	≥ 80%	≥ 80%	≥ 80%	≥ 80%	≥ 80%	≥ 80%	≥ 80%	≥ 80%	≥ 80%	–	–	–	–
OB1OCc2cc(F)c(-c3nnco3)cc21 [Compound 95]	≥ 80%	–	≥ 80%	–	≥ 80%	–	≥ 80%	–	–	≥ 80%	≥ 80%	237 to 239 °C	–	–	–
O/N=C/c1ccc(-c2cc3c(cc2F)COB3O)o1 [Compound 27]	–	≥ 80%	–	–	≥ 80%	≥ 80%	≥ 80%	–	–	≥ 80%	≥ 80%	200 to 220 °C	–	–	–
OB1OCc2cc(F)c(-c3ccsc3Cl)cc21 [Compound 79]	≥ 80%	≥ 80%	≥ 80%	–	–	≥ 80%	≥ 80%	≥ 80%	≥ 80%	≥ 80%	≥ 80%	–	≥ 80%	≥ 80%	–
OB1OCc2cc(Cl)c(-c3cccs3)cc21 [Compound 3]	≥ 80%	≥ 80%	≥ 80%	≥ 80%	–	≥ 80%	≥ 80%	≥ 80%	≥ 80%	≥ 80%	≥ 80%	125 to 135 °C	≥ 80%	≥ 80%	≥ 80%
OB1OCc2cc(Cl)c(-c3cncc(C(F)(F)F)c3)cc21 [Compound 91]	≥ 80%	≥ 80%	≥ 80%	≥ 80%	–	≥ 80%	≥ 80%	≥ 80%	≥ 80%	≥ 80%	≥ 80%	–	≥ 80%	≥ 80%	≥ 80%
Cn1cccc1-c1cc2c(cc1Cl)COB2O [Compound 4]	–	≥ 80%	≥ 80%	≥ 80%	–	≥ 80%	≥ 80%	–	≥ 80%	≥ 80%	≥ 80%	195 to 202 °C	≥ 80%	≥ 80%	–
OB1OCc2cc(Cl)c(-c3ccsc3Cl)cc21 [Compound 88]	≥ 80%	≥ 80%	≥ 80%	≥ 80%	–	≥ 80%	≥ 80%	≥ 80%	≥ 80%	≥ 80%	≥ 80%	–	≥ 80%	≥ 80%	–
CC(=O)c1ccc(-c2cc3c(cc2Cl)COB3O)o1 [Compound 39]	–	≥ 80%	≥ 80%	≥ 80%	≥ 80%	≥ 80%	≥ 80%	≥ 80%	–	≥ 80%	≥ 80%	–	–	–	–
CC1N=C(c2cc3c(cc2Cl)COB3O)S/C1=N/O (stereo not drawn) [Compound 17]	≥ 80%	≥ 80%	≥ 80%	≥ 80%	≥ 80%	–	≥ 80%	–	≥ 80%	≥ 80%	≥ 80%	–	–	–	≥ 80%
COc1c(-c2nnco2)ccc2c1B(O)OC2 [Compound 93]	–	–	≥ 80%	–	≥ 80%	–	≥ 80%	–	–	≥ 80%	≥ 80%	176 to 178 °C	–	–	–
OB1OCc2cc(F)c(-c3ccc(Cl)nc3)cc21 [Compound 13, 2-chloro-5-(5-fluoro-1-hydroxy-3H-2,1-benzoxaborol-6-yl)pyridine]	–	≥ 80%	≥ 80%	–	≥ 80%	≥ 80%	–	–	–	≥ 80%	–	213 to 215 °C	–	–	–
Cc1noc(-c2cc3c(cc2F)COB3O)n1 [Compound 30, 5-(5-fluoro-1-hydroxy-3H-2,1-benzoxaborol-6-yl)-3-methyl-1,2,4-oxadiazole]	≥ 80%	≥ 80%	≥ 80%	–	≥ 80%	–	≥ 80%	–	≥ 80%	≥ 80%	≥ 80%	200 to 202 °C	–	–	≥ 80%
Cc1ncsc1-c1cc2c(cc1Cl)COB2O [Compound 16]	≥ 80%	≥ 80%	≥ 80%	≥ 80%	≥ 80%	≥ 80%	≥ 80%	–	≥ 80%	≥ 80%	≥ 80%	–	–	–	≥ 80%
N#Cc1cscc1-c1cc2c(cc1Cl)COB2O [Compound 42]	≥ 80%	≥ 80%	≥ 80%	≥ 80%	≥ 80%	≥ 80%	≥ 80%	–	≥ 80%	≥ 80%	≥ 80%	–	≥ 80%	–	–
OB1OCc2cc(Cl)c(-c3ncno3)cc21 [Compound 14, 5-(5-chloro-1-hydroxy-3H-2,1-benzoxaborol-6-yl)-1,2,4-oxadiazole]	≥ 80%	≥ 80%	≥ 80%	≥ 80%	–	≥ 80%	≥ 80%	≥ 80%	≥ 80%	≥ 80%	≥ 80%	175 to 177 °C	–	≥ 80%	≥ 80%
